Experiments:
[1] = an = ratio of the nth substance listed; conditions: for surface tension liquid-gas: Ring tensiometer; for electrical conductivity / viscosity / mass density: 101 kPa, Liquid; for electrical conductivity: Alternating current cell with electrodes; for viscosity: Capillary tube (Ostwald / Ubbelohde) method; for mass density: Vibrating tube method
[2] = refractive index (Na D-line) (dimensionless); an = ratio of the nth substance listed; conditions: 101 kPa, Liquid, Standard Abbe refractometry

OCC(O)CO [glycerol] + O=C([O-])[O-].[K+].[K+]
Conditions	electrical conductivity, [1] [S/m]	mass density, [1] [kg/m3]	refractive index, [2]	surface tension liquid-gas, [1] [mN/m]	viscosity, [1] [mPa·s]
293.15 K, a1 = 4	0.0008	1477.9	1.4922	50.6	28104
293.15 K, a1 = 5	0.0034	1447.2	1.491	64.4	18018
293.15 K, a1 = 6	0.0052	1423.6	1.4897	69.5	5500
303.15 K, a1 = 4	0.003	1472	1.4906	46.1	10100
303.15 K, a1 = 5	0.0082	1441.4	1.4894	59.1	8899
303.15 K, a1 = 6	0.0112	1417.8	1.4882	66.8	3500
313.15 K, a1 = 4	0.0069	1466.1	1.4888	45.2	3330
313.15 K, a1 = 5	0.0154	1435.5	1.488	56.7	3440
313.15 K, a1 = 6	0.0247	1411.9	1.4866	65.6	1710
323.15 K, a1 = 4	0.0162	1460.2	1.4862	44.4	1400
323.15 K, a1 = 5	0.0371	1429.6	1.4853	55.3	1418
323.15 K, a1 = 6	0.0393	1405.9	1.4845	64	767
333.15 K, a1 = 4	0.0313	1454.1	1.4857	43.4	663
333.15 K, a1 = 5	0.076	1423.4	1.4839	54.7	646
333.15 K, a1 = 6	0.121	1399.8	1.4827	63	378
343.15 K, a1 = 4	0.0583	1448.1	1.4846	42.6	323
343.15 K, a1 = 5	0.139	1417.5	1.4818	53.7	323
343.15 K, a1 = 6	0.163	1393.8	1.4808	62.2	203
353.15 K, a1 = 4	0.204	1442.2	1.4839	41.6	200
353.15 K, a1 = 5	0.313	1411.4	1.4783	51.3	178
353.15 K, a1 = 6	0.341	1387.7	1.4789	61.5	115

O=C([O-])[O-].[K+].[K+] [potassium carbonate] + OCCO
Conditions	electrical conductivity, [1] [S/m]	mass density, [1] [kg/m3]	refractive index, [2]	surface tension liquid-gas, [1] [mN/m]	viscosity, [1] [mPa·s]
293.15 K, a2 = 6	0.22	1338.8	1.4598	28.4	227
293.15 K, a2 = 7	0.238	1314	1.4565	28.3	149
293.15 K, a2 = 8	0.231	1295.5	1.457	27.8	117
303.15 K, a2 = 6	0.34	1332.1	1.4576	27.8	120
303.15 K, a2 = 7	0.425	1307.3	1.4548	27.7	81
303.15 K, a2 = 8	0.365	1288.8	1.4556	27.3	66
313.15 K, a2 = 6	0.51	1325.3	1.455	27.3	69
313.15 K, a2 = 7	0.537	1300.6	1.4525	27.2	49
313.15 K, a2 = 8	0.531	1282.1	1.4536	26.7	40
323.15 K, a2 = 6	0.78	1318.5	1.4533	26.8	42
323.15 K, a2 = 7	0.801	1293.8	1.4507	26.7	31
323.15 K, a2 = 8	0.73	1275.3	1.4513	26.1	26
333.15 K, a2 = 6	1.17	1311.7	1.4519	26.1	28
333.15 K, a2 = 7	1.18	1287	1.449	26	21
333.15 K, a2 = 8	1.04	1268.5	1.4496	25.5	18
343.15 K, a2 = 6	1.51	1304.9	1.4485	25.5	20
343.15 K, a2 = 7	1.53	1280.1	1.4459	25.3	15
343.15 K, a2 = 8	1.4	1261.7	1.4469	24.8	13

— the NIST ThermoML archive (doi:10.1016/j.tca.2013.10.028)
